Measured values taken from PubChem BioAssay (NCI).
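Grown in 96-well plates, cells were treated for 48 hours with each compound at five concentrations. Insufficient inhibition: endpoint recorded as highest concentration tested. GI50: concentration for 50% inhibition of growth. TGI: concentration producing complete growth inhibition.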

What was measured:
Assay in all cases: DTP human tumour cell line panel, 48 h
SF-539 CNS = test system: SF-539 CNS
A549 NSCLC = test system: A549 NSCLC
NCI-H460 lung = test system: NCI-H460 lung
TK-10 renal = test system: TK-10 renal
NCI/ADR-RES ovarian = test system: NCI/ADR-RES ovarian
HOP-62 NSCLC = test system: HOP-62 NSCLC
SK-MEL-28 melanoma = test system: SK-MEL-28 melanoma
HOP-92 NSCLC = test system: HOP-92 NSCLC

| SMILES | TGI (SF-539 CNS) [µM] | TGI (A549 NSCLC) [µM] | TGI (NCI-H460 lung) [µM] | TGI (TK-10 renal) [µM] | TGI (NCI/ADR-RES ovarian) [µM] | TGI (HOP-62 NSCLC) [µM] | TGI (SK-MEL-28 melanoma) [µM] | TGI (HOP-92 NSCLC) [µM] | GI50 (SF-539 CNS) [µM] | GI50 (A549 NSCLC) [µM] | GI50 (NCI-H460 lung) [µM] | GI50 (TK-10 renal) [µM] | GI50 (NCI/ADR-RES ovarian) [µM] | GI50 (HOP-62 NSCLC) [µM] | GI50 (SK-MEL-28 melanoma) [µM] | GI50 (HOP-92 NSCLC) [µM] |
| --- | --- | --- | --- | --- | --- | --- | --- | --- | --- | --- | --- | --- | --- | --- | --- | --- |
| O=S(=O)(c1cccc(C(F)(F)F)c1)N1c2ccccc2-n2cccc2C1c1cccnc1 (stereo not given) | > 60.9 | > 56.4 | > 51.1 | > 85.1 | 66.2 | > 66.8 | > 59 | > 67.7 |  |  |  |  |  |  |  |  |
| CS(=O)(=O)c1nccc(-c2c(-c3cccc(OCc4ccc(F)cc4)c3)nc3sccn23)n1 | > 100 | > 100 | > 100 | > 100 | > 100 | > 100 | > 100 | > 100 | > 94 | > 81.8 | 56.7 | > 94.2 | 43.2 | 57.2 | 23.8 | 11.1 |
| COc1ccccc1-c1cc2c3c(nc4ccccc42)C(=O)c2cccnc2-c3n1 | 35.4 | 24 | 26 | 29.6 | 32.6 | 48.2 | 34.7 | > 100 | 14.8 | 10 | 11.5 | 14.8 | 7.11 | 14.4 | 18.4 | 19.1 |
| COc1ccc(-c2cc3c4c(nc5ccccc5c4c2)CC(c2cc(OC)c(OC)c(OC)c2)O3)cc1 (stereo not given) | 2.95 |  | 4.79 | 5.28 | 47.3 | 12.5 | 6.62 | 4.71 | 1.44 |  | 1.46 | 2.37 | 3.03 | 2.98 | 2.36 | 1.62 |
| C=CC1CC12C(=O)C1OC2(C)C2C(=O)c3ccccc3C(=O)C12 (stereo not given) | > 100 | > 100 | > 100 | > 100 | > 70.9 | > 100 | > 100 | > 100 | > 82 | > 60 | > 58.3 | > 49.9 | > 43.6 | > 68 | > 71 | > 77.6 |
| COc1ccc(C2C3=C(NC(=O)C2C#N)c2ccc4ccccc4c2OCC3)cc1 (stereo not given) | 28 | > 100 | > 100 | 76.8 | > 100 | 86.3 | > 100 | 43.4 | 12.9 | 38.9 | 66.2 | 29.5 | 31.3 | 28.2 | 42.3 | 11.4 |
| COc1ccc2c(c1)O/C(=C\c1cccc(OCC(=O)Nc3nc4ccccc4s3)c1)C2=O | > 84.5 | > 100 | > 100 | > 100 | > 100 | > 100 | > 100 | 18.4 | 24.7 | 39.8 | > 64.4 | > 54.3 | 47 | 41.1 | > 72 | 2.65 |
| COc1ccc(-c2nc(-c3nc4ccc(F)cc4[nH]3)cc3c2[nH]c2ccccc23)cc1 | 9.33 | 7.5 | 5.81 | 6.74 | > 100 | 74.7 | > 100 |  | 2.8 | 2.21 | 1.98 | 2.2 | 2.77 | 3.22 | 3.4 |  |
| CCN(CC)c1ccc(NC(C(=O)c2ccccc2)c2ccccc2)cc1 (stereo not given) | 4.98 | 54 | 11.4 | 7.53 | 6.21 | 16.5 | 3.6 | 8.21 | 2.11 | 10.5 | 3.08 | 2.49 | 2.54 | 4.31 | 1.81 | 2.22 |
| O=C1Nc2ccc(Cl)cc2/C1=C\c1c(-c2ccc(F)cc2)nc2ccccn12 | 5 | 5.17 | 5.89 | 7.39 | 7.06 | 6.32 | 15.3 | 7.1 | 2.09 | 2.14 | 2.35 | 2.95 | 2.3 | 2.35 | 3.33 | 1.86 |
| C[C@]12CC[C@H](O)CC1=CC[C@@H]1[C@@H]2CC[C@]2(C)C(=O)/C(=C/c3cccc(OCCCn4ccnc4)c3)C[C@@H]12 | 35.5 | 28.8 | 43.2 | 72 |  | 38.2 | 51.5 | 32.3 | 18.7 | 13.8 | 19.6 | 27.9 |  | 20.4 | 22.2 | 12.6 |
| Cc1ccc(NS(=O)(=O)c2ccc(-c3cnc(C4CC4)o3)cc2)cc1 | 13 | 26.2 | 14.9 | 22.1 | 7.79 | 16.7 | 20.1 | 13.2 | 3.32 | 4.55 | 3.91 | 9.96 | 1.61 | 3.13 | 6.22 | 2.14 |
| Cn1ncc2cc(-c3cnc(N)c(Cl)c3N3CCC4(CCNC4=O)CC3)ccc21 | > 100 | > 100 | > 100 | > 100 | > 100 | > 100 | > 100 | 82.4 | 14.1 | > 100 | 59 | 36.1 | 32.8 | 21.6 | 33 | 13 |
| CCCC[C@@H]1NC(=O)[C@H](CCCCN)NC(=O)[C@H](CCCNC(=N)N)NC(=O)[C@H](CC(C)C)NC(=O)[C@@H](NC(=O)[C@H](Cc2cccc(Cl)c2)NC(=O)[C@@H]2CCCN2C(=O)[C@@H](NC(C)=O)C(C)C)CCSSC[C@@H](C(=O)N[C@@H](CCCCN)C(=O)N2CCC[C@H]2C(=O)N2CCC[C@H]2C(=O)N[C@@H](CCC(=O)O)C(N)=O)NC(=O)[C@H](Cc2ccccc2)NC(=O)[C@H](CO)NC(=O)[C@H](C)NC(=O)[C@@H]2CCCN2C1=O | > 50 | > 50 | > 50 | > 50 | > 50 | > 50 | > 50 | > 50 | > 50 | > 50 | > 50 | > 50 | > 50 | > 50 | > 50 | > 50 |
